Biological target: T1, Hsp90β (Homo sapiens, UniProt P08238)
T1 construct: gene HSP90AB1; recombinant Hsp90β purified from baculovirus infected Sf9 cells
Assay: SPR, immobilized Hsp90β, binding curve fit (kinetic Kd […])

T1 sequence (P08238 2-724): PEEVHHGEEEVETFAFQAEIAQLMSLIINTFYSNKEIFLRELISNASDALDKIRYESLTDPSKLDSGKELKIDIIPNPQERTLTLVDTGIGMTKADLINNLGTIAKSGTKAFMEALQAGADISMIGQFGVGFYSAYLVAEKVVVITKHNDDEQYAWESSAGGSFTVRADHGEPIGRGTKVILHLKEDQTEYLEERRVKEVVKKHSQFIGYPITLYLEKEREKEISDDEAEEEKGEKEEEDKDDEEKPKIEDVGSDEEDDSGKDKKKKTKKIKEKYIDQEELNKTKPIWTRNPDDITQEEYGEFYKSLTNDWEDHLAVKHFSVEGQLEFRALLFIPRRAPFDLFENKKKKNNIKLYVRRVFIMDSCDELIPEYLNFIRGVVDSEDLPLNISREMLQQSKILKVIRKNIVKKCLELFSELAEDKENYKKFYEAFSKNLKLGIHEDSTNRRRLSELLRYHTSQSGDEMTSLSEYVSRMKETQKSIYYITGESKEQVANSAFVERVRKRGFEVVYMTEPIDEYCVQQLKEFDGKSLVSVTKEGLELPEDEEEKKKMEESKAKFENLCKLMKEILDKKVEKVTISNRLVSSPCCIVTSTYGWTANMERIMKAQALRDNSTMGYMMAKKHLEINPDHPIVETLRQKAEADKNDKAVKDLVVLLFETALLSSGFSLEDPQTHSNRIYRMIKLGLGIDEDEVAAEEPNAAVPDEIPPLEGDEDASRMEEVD

KU174
Kd: 78 µM
